# Measured values as given in a melting point compilation (Tetko et al.; mined from patent text by program, amines drawn as free bases though some values may be those of a salt).
row,SMILES,melting point
1,COC(=O)C1(Sc2cc(N3C(=O)C4=CCCCC4C3=O)c(F)cc2Cl)CCC1 (centres undefined),98 °C
2,CCOC(=O)CCn1cnc2c1N=CNC2N (centres undefined),166 to 167 °C
3,CC(=O)OC1CSC(Oc2ccc(C)nc2-c2ccoc2)C(OC(C)=O)C1OC(C)=O (centres undefined),117 °C
4,COC(=O)C1C(c2ccc(F)c(C)c2)=CCCC1(C)C (centres undefined),136 to 138 °C
5,Cc1c(NC(=O)NC(C)(C)C)c(C)c2c(c1C(C)O)OCC2c1ccc(C(C)C)cc1 (centres undefined),212 to 214 °C
6,C=CCOC(=O)C(C)(C)ON1C(=O)c2ccccc2C1=O,51 to 53 °C
7,CN(C)C=NS(=O)(=O)c1ccc(Br)s1,103 to 105 °C
8,CCCn1c(CCOC)nc2c(N)nc3cc(OC(=O)NC(C)C)ccc3c21,144 to 146 °C
9,Nc1nc(-c2cc(Cl)ccc2Cl)nc(N2CC(CO)C2)n1,224 to 226 °C
10,N#Cc1c(Cl)nc2n(c1=O)CCS2,148 to 150 °C
11,CC(C)(C)CN1C(=O)C(=O)N(c2ccc(F)cc2F)C1=S,156 to 157 °C
12,N#CC1=C(C2CC2)Nc2n[nH]cc2C1c1ccccc1Cl (centres undefined),> 250 °C
13,COC(=O)c1nc(C)n2c1CN=C(c1ccccc1Cl)c1cc(Cl)ccc1-2,225 to 227 °C
14,O=[N+]([O-])c1cn2c(n1)O[C@@H](COc1ccc(N3CCN(S(=O)(=O)C(F)(F)C(F)(F)C(F)(F)C(F)(F)F)CC3)cc1)CC2,235 to 236 °C
15,COc1ccc2c(Cc3c(Cl)cncc3Cl)nnc(N3CCCC3)c2c1,170 to 172 °C
16,CCCOc1ccc(CCl)cc1-c1nc2c(CCC)nn(C)c2c(=O)[nH]1,102 to 104 °C
17,CCCCCOc1ccc(C2SC(=O)NC2=O)cc1OCC (centres undefined),104 to 106 °C
18,Cc1c(C)c2c(c(C)c1N)CC(C)(CN1CCC(Cc3ccccc3)CC1)O2 (centres undefined),71 to 73 °C
19,Cc1nsc(N=Nc2ccc(N(CCO)CCO)cc2NC(=O)C(C)C)c1C#N,152 to 154 °C
20,COc1ccc(/C=C/C(=O)/C=C/C(=O)O)c(OC)c1,195 to 200 °C
21,CCOC(=O)c1c(C)nc(CCl)c(C(=O)OCC)c1-c1cccc([N+](=O)[O-])c1,76 to 78 °C
22,CC(C)(C)OC(=O)NCC(=O)NCCCN1CCN(CCCNc2cccc3c2C(=O)c2ccccc2C3=O)CC1,118 °C
23,C=CCc1c(O)ccc2c1CCC(=O)N2,236 to 239 °C
24,O=C(NNc1ccccc1)NC1(N=NC2(NC(=O)NNc3ccccc3)CCCCC2)CCCCC1,148 to 151 °C

row,SMILES,melting point
1,COc1cccc2c1CC[C@@H](O)[C@@H]2N1CCCC1 (relative stereo),113 to 115 °C
2,Cc1[nH]nc(C(F)(F)F)c1-c1cncc(OC2SCC(O)C(O)C2O)c1 (centres undefined),234 °C
3,CCc1cccc(CC(=O)O)c1OCCCc1cn(-c2ncc(Cl)cc2Cl)nc1C(C)C,93 to 95 °C
4,CCOC(=O)c1[nH]c(C)c2c1CCC2,166 to 167 °C
5,O=C(NCC(O)c1ccccc1)C1CCCCC1 (centres undefined),118 to 119 °C
6,CNC(=O)c1cc(N)cc(C(F)(F)F)c1,113 to 115 °C
7,CCOC(=O)CN1C(=O)N(c2ccc(C#N)c(C(F)(F)F)c2)C(=O)C1(C)C,152 °C
8,COc1ccc(Nc2nc(-c3ccccc3)c(C(=O)c3sc(Nc4ccc(OC)cc4)nc3-c3ccccc3)s2)cc1,> 285 °C
9,COc1cccc2c1OC(C(=O)O)CO2 (centres undefined),131 to 132 °C
10,CCCCCCCCOC(=O)C(CC(C)C)NC(=O)c1cc([N+](=O)[O-])cc([N+](=O)[O-])c1 (centres undefined),71 to 73 °C
11,CCOC(=O)c1cc(C#N)c(C=O)nc1NC(C)CC (centres undefined),37 to 38 °C
12,S=C(Nc1ccc(Cl)cc1)NC1CC2C3CC4C2C4C13 (centres undefined),168 to 170 °C
13,CCCc1c(OCCCSc2ccc(C(=O)COC(C)=O)cn2)ccc(C(C)=O)c1O,93 to 95 °C
14,CCOC(=O)C1C(N(C)C(=O)C(F)(F)F)C(=O)N1c1ccc(OC)cc1 (centres undefined),102 to 104 °C
15,COc1cc(C=C2OC(C)=CC2=O)cc(OC)c1O,188 to 190 °C
16,O=C1CN(c2ccc(Oc3ccccc3)cc2)C(=S)N1c1ccc([N+](=O)[O-])cc1,204 °C
17,C=CCn1c(NCC)nc(N2CCc3ccccc3CC2)c(C#N)c1=O,172 to 177 °C
18,CCC1(C)C(=O)c2c(cc(OCC(=O)O)c(Cl)c2Cl)C1c1ccccc1 (centres undefined),192 °C
19,O=C1NC(=O)C(c2cc(F)cc(F)c2)(c2cc(F)cc(F)c2)N1,271 to 274 °C
20,CS(=O)(=O)c1ccc2c(c1)S(=O)(=O)NCN2CCF,193 to 195 °C
21,CCCCCCCNC(=O)Nc1ccccc1C(=O)NCCSc1nc(-c2ccccc2)c(-c2ccccc2)[nH]1,285 to 288 °C
22,N#CC(=Cc1ccc(O)c(O)c1)C(N)=S,213 °C
23,COc1ccc(C2(c3ccc(OC)cc3)CN(c3ccc(S(C)(=O)=O)cc3)C(c3ccc(Cl)cc3)=N2)cc1,110 to 113 °C
24,COc1cc2c(cc1OC)C(C(S)(C#N)C(C)C(=O)O)=NCC2 (centres undefined),155 to 158 °C

# Second part, the molecule after the results:
row,melting point,SMILES
1,166 to 169 °C,Cc1[nH]c2ccc(F)cc2c1C(=O)NC1CCN(Cc2ccccc2)CC1
2,> 280 °C,Cc1ccc2c(c1)c1cc(-c3ccc(O)cc3)c(=O)n(C)c1n2C
3,44 to 46 °C,CC(C(=O)NCC(COC(=O)C(C)(C)C)Cc1ccc(C(C)(C)C)cc1)c1ccc(NS(C)(=O)=O)c(F)c1 (centres undefined)
4,118 to 119 °C,Fc1cccc(-c2sc(-c3ccccc3)cc2-c2ccccc2)c1
5,160 to 163 °C,NC(=O)N(O)CCNC(=O)c1ccc(Oc2ccccc2)o1
6,167 to 180 °C,O=C(COc1ccc(Cl)cc1Cl)Nc1ccnn1-c1c(Cl)cc(C(F)(F)F)cc1Cl
7,98 to 99 °C,CCOC(Nc1ccccc1)(OCC)c1ccnc(C(=O)c2ccc(Cl)cc2)c1
8,116 to 118 °C,COc1cc2c3ccc(OC)c(OC)c3n(CCCc3ccccc3)c2cc1OC
9,182 to 185 °C,CCCc1c(OCCCOc2ccc(C(=O)C(=O)O)cc2)ccc(C(=O)O)c1O
10,124 to 125 °C,COCOCc1nc(-c2ccccc2)oc1CCc1ccc(OCc2nc(-c3ccccc3)oc2C)cc1
11,167 to 168 °C,CCCCn1c(=O)c2nn(S(=O)(=O)c3ccc4ccccc4c3)cc2n(CCCC)c1=O
12,183 to 184 °C,COc1ccc(C(=O)Nc2ccccc2)cc1NC(=S)Nc1ccc([N+](=O)[O-])cc1
13,132 to 133 °C,COc1ccc(-c2c(CBr)c3ccc(OC)cc3oc2=O)c(OC(C)=O)c1
14,266 to 268 °C,O=c1c(Cc2cccnc2)cn2c3ccccc3c(=O)c3cccc1c32
15,251 to 252 °C,Oc1cccc(-c2nc3n(n2)Cc2ccccc2-3)c1
16,124 to 125 °C,OCc1cccc2cc3ccccc3cc12
17,192 to 193 °C,Nc1cc(/C=C/c2nc3ccccc3s2)ccc1O
18,137 to 139 °C,O=C(NC1CCCCC1)OC1CCN(C(=O)Oc2ccc(Oc3ccccc3)cc2)CC1
19,192 to 193 °C,CCOC(=O)c1ncn2c1c(C)nc1ccccc12
20,211 to 213 °C,OCc1ccc(/C=C/c2ccncc2)cc1
21,101 °C,CN(CCCl)S(=O)(=O)c1ccc2ccccc2c1
22,226 to 228 °C,O=S(=O)(Nc1cccnc1Nc1ccccc1)c1ccc(O)cc1
23,270 to 272 °C,CC(=C1SC(=O)NC1=O)c1ccc(OCCOc2c(-c3ccc(F)c(F)c3)n(C)c3cc(F)ccc3c2=O)cc1
24,174 to 175 °C,Cc1c(C(N)=O)sc2cncc(Oc3ccc(Cl)cc3)c12
25,100 to 102 °C,CN1CCN(CCc2ccc(Nc3ncc4c(n3)-c3ccccc3C(c3cccc(Br)c3)C4)cc2)CC1 (centres undefined)
26,108 to 109 °C,CCC(CO)(OC)c1ccc(-c2ccc(OC)cc2)cc1 (centres undefined)

row,melting point,SMILES
1,136 to 137 °C,CCCCCCc1cc(CO)c(-c2ccccc2)c(-c2ccccc2)c1CO
2,> 270 °C,CC(=O)Nc1ccc(Nc2nnc(Cc3ccncc3)c3ccccc23)cc1
3,166 to 168 °C,Cc1cc(=O)n2cccc(OCc3ccccc3Cl)c2n1
4,89 to 91 °C,COC(=O)c1ccc(OCCNC(=O)c2ccc(C(C)C)cc2)cc1
5,228 °C,CSc1nc(-c2ccc(F)cc2)c(-c2ccnc(Nc3ccccc3)c2)[nH]1
6,117 °C,CN(C)c1ccc(CNc2ccc(Cl)c(Cl)c2)cc1
7,136 to 138 °C,Cc1ccc(S(=O)(=O)n2ccc3cccnc32)cc1
8,79 to 82 °C,CON=C(C1=NCCS1)c1ccccc1COc1cc(C)ccc1C
9,73 to 75 °C,CC(O)CN(CC(C)O)C(=O)c1ccc(C(=O)N2CCN(c3ncccc3NC(C)C)CC2)cc1 (centres undefined)
10,178 °C,Clc1ccc2[nH]c(Sc3ccccc3)c(C3=NCCN3)c2c1
11,224 to 225 °C,O=[N+]([O-])c1ccc(NN=C(c2ccccc2)c2ccc(O)cc2)c([N+](=O)[O-])c1
12,196 to 198 °C,N[C@H]1CCN(c2ccc3c(C(=O)NCCc4ccccc4Cl)c(Cl)ccc3n2)C1
13,52 °C,CCCCCc1cnc(-c2ccc(SC)cc2)nc1
14,233 to 234 °C,COc1ccc(-c2cnc3c(n2)c(C#N)cn3S(=O)(=O)c2ccc(C)cc2)cc1OC
15,105 °C,Cc1cc(C)c(=O)n(C(C(=O)NS(=O)(=O)c2ccc(C(C)C)cc2)c2ccc3c(c2)OCO3)n1 (centres undefined)
16,56 to 59 °C,Cc1cccc2cccc(O)c12
17,125 to 126 °C,CC(C)(C)OC(=O)N1CCN(C(=O)CCc2cccnc2)CC1
18,130 °C,COc1ccc(S(=O)(=O)C2(C(=O)O)CCN(Cc3cccc(OC)c3)CC2)cc1
19,153 to 154 °C,CNC(=O)Cc1cccc2c(C(C)C)nccc12
20,83 to 84 °C,CCOC(=O)CC(=O)CC(O)/C=C/c1c(-c2ccccc2)ccnc1C (centres undefined)
21,151 to 154 °C,Cc1ccc(-c2ncc3c(n2)CCCC3)nc1-c1ccc(C=O)cc1
22,198 °C,CC(=NNC(=O)c1ccc(C(F)(F)F)cc1)c1ccncc1
23,158 to 160 °C,O=c1[nH]cccc1Cc1ccccc1
24,215 to 217 °C,Oc1ccc(Nc2cc(-c3ccccc3)[nH]n2)cc1
25,46 to 50 °C,Cc1ccc(C(C)(C)C)c(SC2=C(O)CC(CCc3ccccc3)(CCC(C)C)OC2=O)c1 (centres undefined)
